Reference: patent US20220330549A1, “USE OF N-BENZYLBENZAMIDE-BASED COMPOUND AS HERBICIDE” (Northwest A&F University, priority 2020, published 2022)

What was measured:
Assay type in all cases: in vivo
Humulus scandens [1] = assay: Herbicidal activity test for indoor pre-emergence soil treatment; conditions: 150 g a.i./ha, visual inspection 21 days after treatment
Outline: (§1)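 Pre-emergence test following NY/T 1155.3-2006: weed seeds were sown in moistened neutral sandy loam (≤2% organic matter) and covered with 0.5–2.0 cm of soil. After 24 h, the soil was sprayed with a 10% EC diluted in water at 150 g(a.i.)/ha. Damage was scored visually on a 1–9 scale at 21 days.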

Digitaria sanguinalis [2] = assay: Field test for weed control in a corn field; conditions: for Post-emergence weed control effect, Digitaria sanguinalis: 150 g a.i./ha, after treatment
Outline: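 Field trial in a corn field following GB/T 17980.42-2000. Test compounds were formulated as 10% emulsifiable concentrates, diluted in water and sprayed post-emergence at 150 g(a.i.)/ha when corn had 2 to 5 leaves, with 4 replicates on 20 m^2 plots. Control of Digitaria sanguinalis was scored on a 1-9 scale based on weed damage relative to the untreated blank area.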

Convolvulus arvensis = assay: Field test for weed control in a corn field; conditions: for Post-emergence weed control effect, Convolvulus arvensis: 150 g a.i./ha, after treatment
Outline: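 Field trial of weed control against Convolvulus arvensis in corn, run following GB/T 17980.42-2000. Test agents were formulated as 10% emulsifiable concentrates and sprayed in water at 150 g(a.i.)/ha when corn plants had 2 to 5 leaves. Each treatment was replicated 4 times on 20 m^2 plots, and 25% mesotrione oil dispersion served as the control agent.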

Barnyard grass [3] = assay: Field test for weed control in a corn field; conditions: for Post-emergence weed control effect, Barnyard grass: 150 g a.i./ha, 30 days after treatment
Outline: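 Corn-field efficacy trial following GB/T 17980.42-2000. Test compounds were formulated as 10% emulsifiable concentrates, diluted in water and sprayed post-emergence at 150 g(a.i.)/ha when corn had 2 to 5 leaves. Each treatment was replicated 4 times on 20 m^2 plots. Barnyard grass control was rated on a 1-9 damage scale.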

Portulaca oleracea = assay: Field test for weed control in a corn field; conditions: for Post-emergence weed control effect, Portulaca oleracea: 150 g a.i./ha, after treatment
Outline: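 Field efficacy trial in corn following GB/T 17980.42-2000. Test compounds were prepared as 10% emulsifiable concentrates, diluted in water, and sprayed at 150 g(a.i.)/ha when corn had 2 to 5 leaves after sowing. Plots were 20 m^2 with 4 replicates per treatment. Herbicidal activity was scored on a 1-9 scale from weed damage symptoms and severity.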

goosegrass = assay: Field test for weed control in a corn field; conditions: for Post-emergence weed control effect, Goose grass: 150 g a.i./ha, after treatment
Outline: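 Weed control efficacy against goosegrass was tested in a corn field following GB/T 17980.42-2000. Compounds formulated as 10% emulsifiable concentrates were diluted in water and sprayed post-emergence at 150 g(a.i.)/ha when corn had 2 to 5 leaves, with 4 replicates of 20 m^2 plots. Herbicidal activity was rated on a 1-9 scale by damage symptoms and severity.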

Chenopodium album = assay: Field test for weed control in a corn field; conditions: for Post-emergence weed control effect, Chenopodium album: 150 g a.i./ha, after treatment
Outline: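 A corn-field efficacy trial following GB/T 17980.42-2000 tested post-emergence control of Chenopodium album. Test compounds formulated as 10% emulsifiable concentrates were diluted in water and sprayed at 150 g(a.i.)/ha when the corn had 2 leaves to 5 leaves, on 20 m^2 plots with 4 replicates. Herbicidal activity was rated on a 1-9 scale by damage symptoms and severity.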

nutgrass flatsedge = assay: Field test for weed control in a corn field; conditions: for Post-emergence weed control effect, Nutgrass flatsedge: 150 g a.i./ha, after treatment
Outline: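 A corn field efficacy trial following GB/T 17980.42-2000 assessed post-emergence control of nutgrass flatsedge. Test compounds were formulated as 10% emulsifiable concentrates, diluted in water, and sprayed at 150 g(a.i.)/ha when the corn had 2 to 5 leaves. Each treatment had 4 replicates on 20 m^2 plots. Herbicidal activity was graded on a 1-9 scale by damage symptoms and severity.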

Solanum nigrum = assay: Field test for weed control in a corn field; conditions: for Post-emergence weed control effect, Solanum nigrum: 150 g a.i./ha, 30 days after treatment
Outline: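 Post-emergence weed control was tested in a corn field following GB/T 17980.42-2000. Compounds were made into 10% emulsifiable concentrates, diluted in water and sprayed at 150 g(a.i.)/ha when corn had 2 to 5 leaves after sowing, in 20 m^2 plots with 4 replicates. Effects on Solanum nigrum were graded on a 1-9 scale relative to the blank control area.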

Acalypha australis = assay: Field test for weed control in a corn field; conditions: for Post-emergence weed control effect, Acalypha australis: 150 g a.i./ha, after treatment
Outline: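 Post-emergence field trial in a corn field following GB/T 17980.42-2000. Test compounds were formulated as 10% emulsifiable concentrates, diluted in water, and sprayed at 150 g(a.i.)/ha when corn had 2 to 5 leaves, with 4 replicates on 20 m^2 plots. Mesotrione 25% oil dispersion served as the control agent. Weed control was scored on a 1-9 scale.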

Amaranthus retroflexus [4] = assay: Field test for weed control in a corn field; conditions: for Post-emergence weed control effect, Amaranthus retroflexus: 150 g a.i./ha, 30 days after treatment
Outline: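 Field efficacy trial in a corn field following GB/T 17980.42-2000. Test compounds were formulated as 10% emulsifiable concentrates, diluted in water and sprayed post-emergence when corn had 2 to 5 leaves. Each treatment covered 20 m^2 with 4 replicates. A 25% mesotrione oil dispersion served as control. Damage to Amaranthus retroflexus was rated on a 1-9 scale against untreated blank plots.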

green bristlegrass [5] = assay: Field test for weed control in a corn field; conditions: for Post-emergence weed control effect, Green bristlegrass: 150 g a.i./ha, after treatment
Outline: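 Post-emergence weed control was tested in a corn field following GB/T 17980.42-2000. When the corn had 2 leaves to 5 leaves after sowing, 10% emulsifiable concentrates diluted in water were sprayed at 150 g(a.i.)/ha on 20 m^2 plots, four replicates per treatment. Effects on green bristlegrass were scored on a 1-9 damage scale relative to the blank control area.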

Digitaria sanguinalis [6] = assay: Herbicidal activity test for indoor pre-emergence soil treatment; parameters: key: 1-9 levels; higher = more weed remaining vs blank control; conditions: 150 g a.i./ha, visual inspection 21 days after treatment
Outline: as §1

Amaranthus retroflexus [7] = assay: as above; parameters: key: 1-9 levels; higher = more weed remaining vs blank control; conditions: 150 g a.i./ha, visual inspection 21 days after treatment
Outline: as §1

Broadleaf weed = assay: Post-emergence herbicidal activity test in a paddy field; parameters: key: level scale; higher level = more weed left vs blank control; conditions: 150 g a.i./ha (penoxsulam control 250 g(a.i.)/h)
Outline: (§2)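 Efficacy was visually estimated 15 and 30 days after spraying, grading weed coverage relative to an untreated neighbouring plot (level 2 = 0 to 2.5%, level 9 = 67.6 to 100%). Treatments were 150 g(a.i.)/ha from 10% emulsifiable concentrates applied at the 4-5 leaf rice stage, four repeats of 50 m^2 each.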

Gramineae = assay: as above; parameters: key: level scale; higher level = more weed left vs blank control; conditions: 150 g a.i./ha (penoxsulam control 250 g(a.i.)/h)
Outline: as §2

Cyperaceae = assay: as above; parameters: key: level scale; higher level = more weed left vs blank control; conditions: 150 g a.i./ha (penoxsulam control 250 g(a.i.)/h)
Outline: as §2

Piemarker [8] = assay: Herbicidal activity test for indoor post-emergence spraying on stems and leaves; parameters: key: grade level by weed remaining vs blank control, e.g. 5 = 10.1-15%; conditions: 150 g a.i./ha, visual inspection 21 days after treatment
Outline: (§3)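 Post-emergence stem and leaf spray in an indoor test following NY/T 1155.4-2006, with weeds sown and grown in a greenhouse. Effect scored visually 21 days after treatment as graded levels, each level set by the percentage of weed remaining relative to the blank control area.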

Digitaria sanguinalis [9] = assay: as above; parameters: key: grade level by weed remaining vs blank control, e.g. 5 = 10.1-15%; conditions: 150 g a.i./ha, visual inspection 21 days after treatment
Outline: as §3

Barnyard grass [10] = assay: as above; parameters: key: grade level by weed remaining vs blank control, e.g. 5 = 10.1-15%; conditions: 150 g a.i./ha, visual inspection 21 days after treatment
Outline: as §3

Humulus scandens [11] = assay: as above; parameters: key: grade level by weed remaining vs blank control, e.g. 5 = 10.1-15%; conditions: 150 g a.i./ha, visual inspection 21 days after treatment
Outline: as §3

Amaranthus retroflexus [12] = assay: as above; parameters: key: grade level by weed remaining vs blank control, e.g. 5 = 10.1-15%; conditions: 150 g a.i./ha, visual inspection 21 days after treatment
Outline: as §3

green bristlegrass [13] = assay: as above; parameters: key: grade level by weed remaining vs blank control, e.g. 5 = 10.1-15%; conditions: 150 g a.i./ha, visual inspection 21 days after treatment
Outline: as §3

Piemarker [14] = assay: Herbicidal activity test for indoor pre-emergence soil treatment; parameters: key: level 1-9; higher = more weed remaining vs blank control; conditions: 150 g a.i./ha, visual inspection 21 days after treatment
Outline: as §1

Barnyard grass [15] = assay: as above; parameters: key: level 1-9; higher = more weed remaining vs blank control; conditions: 150 g a.i./ha, visual inspection 21 days after treatment
Outline: as §1

green bristlegrass [16] = assay: as above; parameters: key: level 1-9; higher = more weed remaining vs blank control; conditions: 150 g a.i./ha, visual inspection 21 days after treatment
Outline: as §1

[17] = 150 g(a.i.)/ha, 21 days after treatments

SMILES | Herbicidal Activity Humulus scandens (Humulus scandens [1]) | Post-emergence weed control effect, Digitaria sanguinalis (Digitaria sanguinalis [2]) | Post-emergence weed control effect, Convolvulus arvensis (Convolvulus arvensis) | Post-emergence weed control effect, Barnyard grass (Barnyard grass [3]) | Post-emergence weed control effect, Portulaca oleracea (Portulaca oleracea) | Post-emergence weed control effect, Goose grass (goosegrass) | Post-emergence weed control effect, Chenopodium album (Chenopodium album) | Post-emergence weed control effect, Nutgrass flatsedge (nutgrass flatsedge) | Post-emergence weed control effect, Solanum nigrum (Solanum nigrum) | Post-emergence weed control effect, Acalypha australis (Acalypha australis) | Post-emergence weed control effect, Amaranthus retroflexus (Amaranthus retroflexus [4]) | Post-emergence weed control effect, Green bristlegrass (green bristlegrass [5]) | Herbicidal Activity Digitaria sanguinalis (Digitaria sanguinalis [6]) | Herbicidal Activity Amaranthus retroflexus (Amaranthus retroflexus [7]) | Herbicidal activity 15 days after treatment Broadleaf weed (Broadleaf weed) | Herbicidal activity 30 days after treatment Broadleaf weed (Broadleaf weed) | Herbicidal activity 15 days after treatment Gramineae (Gramineae) | Herbicidal activity 30 days after treatment Gramineae (Gramineae) | Herbicidal activity 15 days after treatment Cyperaceae (Cyperaceae) | Herbicidal activity 30 days after treatment Cyperaceae (Cyperaceae) | further results
Cc1cccc(C(=O)NCc2cc(F)cc(Cl)c2)n1 [Compound B27] | 1 | 1 | 1 | 1 | 1 | 1 | 1 | 1 | 1 | 1 | 1 | 1 | 1 | 1 | 1 | 1 | 1 | 1 | 1 | 1 | controlling effect on Digitaria sanguinalis (Digitaria sanguinalis [2]; [17]): 1; controlling effect on Convolvulus arvensis (Convolvulus arvensis; [17]): 1; controlling effect on barnyard grass (Barnyard grass [3]; [17]): 1; controlling effect on Portulaca oleracea (Portulaca oleracea; [17]): 1; controlling effect on goosegrass (goosegrass; [17]): 1; controlling effect on Chenopodium album (Chenopodium album; [17]): 1; controlling effect on nutgrass flatsedge (nutgrass flatsedge; [17]): 1; controlling effect on Solanum nigrum (Solanum nigrum; [17]): 1; controlling effect on Acalypha australis (Acalypha australis; [17]): 1; controlling effect on Amaranthus retroflexus (Amaranthus retroflexus [4]; [17]): 1; controlling effect on green bristlegrass (green bristlegrass [5]; [17]): 1; Herbicidal Activity Piemarker (Piemarker [8]): 1; Herbicidal Activity Digitaria sanguinalis (Digitaria sanguinalis [9]): 1; Herbicidal Activity Barnyard grass (Barnyard grass [10]): 1; Herbicidal Activity Humulus scandens (Humulus scandens [11]): 1; Herbicidal Activity Amaranthus retroflexus (Amaranthus retroflexus [12]): 1; Herbicidal Activity Green bristlegrass (green bristlegrass [13]): 1; Herbicidal Activity Piemarker (Piemarker [14]): 1; Herbicidal Activity Barnyard grass (Barnyard grass [15]): 1; Herbicidal Activity Green bristlegrass (green bristlegrass [16]): 1
Cc1cccc(C(=O)NCc2ccc(F)cc2)c1 [Compound B02] | 2 (equivalent to 0 to 2.5% of the weed in the blank control area) | 2 (equivalent to 0 to 2.5% of the weed in the blank control area) | 1 | 1 | 1 | 2 (equivalent to 0 to 2.5% of the weed in the blank control area) | 1 | 2 (equivalent to 0 to 2.5% of the weed in the blank control area) | 2 (equivalent to 0 to 2.5% of the weed in the blank control area) | 2 (equivalent to 0 to 2.5% of the weed in the blank control area) | 1 | 1 | 2 (equivalent to 0 to 2.5% of the weed in the blank control area) | 1 | 1 | 1 | 2 (equivalent to 0 to 2.5% of the weed in the blank control area) | 2 (equivalent to 0 to 2.5% of the weed in the blank control area) | 1 | 1 | Herbicidal Activity Piemarker (Piemarker [8]): 1; Herbicidal Activity Digitaria sanguinalis (Digitaria sanguinalis [9]): 1; Herbicidal Activity Barnyard grass (Barnyard grass [10]): 1; Herbicidal Activity Humulus scandens (Humulus scandens [11]): 1; Herbicidal Activity Amaranthus retroflexus (Amaranthus retroflexus [12]): 1; Herbicidal Activity Green bristlegrass (green bristlegrass [13]): 1; Herbicidal Activity Piemarker (Piemarker [14]): 2 (equivalent to 0 to 2.5% of the weed in the blank control area); Herbicidal Activity Barnyard grass (Barnyard grass [15]): 1; Herbicidal Activity Green bristlegrass (green bristlegrass [16]): 1
